Laboratory results taken from PMC11249626, “Fluorophore-Labeled Pyrrolones Targeting the Intracellular Allosteric Binding Site of the Chemokine Receptor CCR1” (ACS Pharmacology & Translational Science, 2024).
Values after ≈ are worked out from the molar mass of the structure shown.

Assays:
[1] = biological target: T1, CCR9 (Homo sapiens, UniProt P51686); experiment: NanoBRET-based assay for binding to the IABS of CCR9, as previously reported; details: up to a concentration of 20 μM
T1 construct: host or cells: HEK293T, transient
T1 sequence (P51686 1-369): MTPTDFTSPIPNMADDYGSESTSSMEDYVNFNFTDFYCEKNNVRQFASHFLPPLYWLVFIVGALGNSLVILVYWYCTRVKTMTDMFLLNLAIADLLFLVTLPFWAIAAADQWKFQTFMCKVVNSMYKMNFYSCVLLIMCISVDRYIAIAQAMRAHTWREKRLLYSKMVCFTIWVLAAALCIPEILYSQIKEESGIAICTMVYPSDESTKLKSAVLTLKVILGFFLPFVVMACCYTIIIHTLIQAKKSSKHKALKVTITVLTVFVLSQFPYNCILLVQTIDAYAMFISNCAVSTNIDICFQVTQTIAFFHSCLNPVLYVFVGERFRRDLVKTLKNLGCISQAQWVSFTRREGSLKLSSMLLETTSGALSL
Description: (§1) With 6 (Figure 1), a first lead structure for intracellular CCR1 inhibition that features an approximately 20-fold CCR1 over CCR2 selectivity was previously discovered by Ortiz Zacarías et al.([33]) In order to discover new chemotypes for selective CCR1 over CCR2 inhibition, we aimed to apply our novel NanoBRET competition binding assay for CCR1 in combination with our recently published CCR2 competition binding assay based on 7.[47] In our first attempt, we screened a small in-house library enriched with intracellular GPCR ligands and structural analogues thereof. […] Additionally, we tested 23 for binding to the IABS of CCR9 and CXCR2 using our recently reported NanoBRET-based assay platform (Figure 6C).[44],[45] In the course of these studies, we detected no binding of 23 to CCR9 and CXCR2 up to a concentration of 20 μM. Since cell lineage-dependent effects have been observed for CCR1 antagonists,[59] we studied the CCR1 over CCR2 selectivity of 23 by using a previously reported radioligand binding assay with membrane preparations from osteosarcoma (U2OS) cells stably expressing human CCR1 or CCR2.[33] […] In agreement with these previous reports,[33] we observed a reduction in CCR1 over CCR2 selectivity when moving from membrane-based binding assays to cell-based functional assays. […]

[2] = biological target: T2, CXCR2 (Homo sapiens, UniProt P25025); experiment: NanoBRET-based assay for binding to the IABS of CXCR2, as previously reported; details: up to a concentration of 20 μM
T2 construct: host or cells: HEK293T, transient
T2 sequence (P25025 1-360): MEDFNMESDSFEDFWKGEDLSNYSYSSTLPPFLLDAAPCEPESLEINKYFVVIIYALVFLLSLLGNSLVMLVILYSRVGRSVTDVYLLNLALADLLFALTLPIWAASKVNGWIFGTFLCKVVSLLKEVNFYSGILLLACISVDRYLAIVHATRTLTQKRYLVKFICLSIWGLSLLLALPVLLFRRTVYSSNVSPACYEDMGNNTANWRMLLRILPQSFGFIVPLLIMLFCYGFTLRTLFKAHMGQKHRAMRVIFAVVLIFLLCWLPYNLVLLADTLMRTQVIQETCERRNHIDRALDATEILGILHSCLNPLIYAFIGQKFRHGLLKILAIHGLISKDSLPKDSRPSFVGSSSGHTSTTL
Description: as §1

[3] = Kinetic solubility assay (nephelometry); format: physicochemical; details: aqueous buffer, kinetic from dmso stock; saline phosphate buffer pH 7.25, 1% DMSO, 25 °C, ± SD; read-out: kinetic solubility Skin
[4] = biological target: T3, CCR1 (Homo sapiens, UniProt P32246); experiment: Membrane-based NanoBRET competition kinetic assay with 12 (1000 nM) and CCR1_Nluc membranes; format: binding; set-up: Promega pNLF1-C (Nluc) #CCR010TN00; host or cells: HEK293T, transient (PEI)
T3 sequence (P32246 1-355): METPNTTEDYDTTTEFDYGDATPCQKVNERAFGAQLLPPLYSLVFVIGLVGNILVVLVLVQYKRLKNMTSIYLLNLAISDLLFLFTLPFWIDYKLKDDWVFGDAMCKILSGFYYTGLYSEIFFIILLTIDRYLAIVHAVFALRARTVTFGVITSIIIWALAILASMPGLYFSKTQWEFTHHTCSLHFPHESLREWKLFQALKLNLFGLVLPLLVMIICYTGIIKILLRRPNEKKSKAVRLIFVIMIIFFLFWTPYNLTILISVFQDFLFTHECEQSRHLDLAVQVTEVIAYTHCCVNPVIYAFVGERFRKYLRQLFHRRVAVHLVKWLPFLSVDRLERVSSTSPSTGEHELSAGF

Binding to the IABS of CCR9 [1] | Binding to the IABS of CXCR2 [2] | solubility kinetic at 10 s [3] [µM] | koff ([4]; CCR1_Nluc membranes) [s⁻¹] | kon ([4]; CCR1_Nluc membranes) [M⁻¹ s⁻¹] | tr (kinetic competition) ([4]; CCR1_Nluc membranes) [min] | Ki ([4]; kinetic competition, read-out: Ki(kin.)) [nM] | Structure (SMILES)
no binding | no binding | 442 ± 27 (≈ 185 µg/mL) |  |  |  |  | O=C(C1=C(O)C(=O)N(CCc2ccc(O)cc2)C1c1ccc(F)cc1)c1ccccc1 (racemic) [compound 23]
 |  |  | 0.0019 | 723000 | 9.1 ± 0.5 | 2.63 | CC(=O)C1=C(O)C(=O)N(c2ccc(Br)cc2F)C1C1CCCCC1 (stereo not shown) [compound 5, reference compound]
